Reference: PubChem BioAssay AID2060886 (Molecular Pharmacology Branch, DTP, NCI, 2025)
Values belong to the compound of their own block, whether it stands above or below them.

Tested on: 653999-131-R-J2-PDC complex spheroids, growth inhibition
Experiment: Anticancer human tumor 653999-131-R-J2-PDC patient-derived lung adenocarcinoma cell line growth inhibition [RAS]
Settings: for viability, T/C: stronger effect = lower value
Procedure, shortened: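 Tumour cells grown as complex spheroids with HUVEC endothelial cells and mesenchymal stem cells, treated with RAS pathway inhibitor combinations. Each agent spans half-log steps from near clinical Cmax, or 10 microM where Cmax is unknown.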

[1] = curve of first compound, second compound 0.000949 µM
[2] = curve of first compound, second compound 0.003 µM
[3] = curve of first compound, second compound 0.00949 µM
[4] = curve of first compound, second compound 0.03 µM
[5] = curve of first compound, second compound 0.0949 µM
[6] = curve of first compound, second compound 0.3 µM
[7] = second compound 0.000949 µM, first compound 0.0316 µM
[8] = second compound 0.000949 µM, first compound 0.1 µM
[9] = second compound 0.000949 µM, first compound 0.316 µM
[10] = second compound 0.000949 µM, first compound 1 µM
[11] = second compound 0.000949 µM, first compound 3.16 µM
[12] = second compound 0.000949 µM, first compound 10 µM
[13] = second compound 0.003 µM, first compound 0.0316 µM
[14] = second compound 0.003 µM, first compound 0.1 µM
[15] = second compound 0.003 µM, first compound 0.316 µM
[16] = second compound 0.003 µM, first compound 1 µM
[17] = second compound 0.003 µM, first compound 3.16 µM
[18] = second compound 0.003 µM, first compound 10 µM
[19] = second compound 0.00949 µM, first compound 0.0316 µM
[20] = second compound 0.00949 µM, first compound 0.1 µM
[21] = second compound 0.00949 µM, first compound 0.316 µM
[22] = second compound 0.00949 µM, first compound 1 µM
[23] = second compound 0.00949 µM, first compound 3.16 µM
[24] = second compound 0.00949 µM, first compound 10 µM
[25] = second compound 0.03 µM, first compound 0.0316 µM
[26] = second compound 0.03 µM, first compound 0.1 µM
[27] = second compound 0.03 µM, first compound 0.316 µM
[28] = second compound 0.03 µM, first compound 1 µM
[29] = second compound 0.03 µM, first compound 3.16 µM
[30] = second compound 0.03 µM, first compound 10 µM
[31] = second compound 0.0949 µM, first compound 0.0316 µM
[32] = second compound 0.0949 µM, first compound 0.1 µM
[33] = second compound 0.0949 µM, first compound 0.316 µM
[34] = second compound 0.0949 µM, first compound 1 µM
[35] = second compound 0.0949 µM, first compound 3.16 µM
[36] = second compound 0.0949 µM, first compound 10 µM
[37] = second compound 0.3 µM, first compound 0.0316 µM
[38] = second compound 0.3 µM, first compound 0.1 µM
[39] = second compound 0.3 µM, first compound 0.316 µM
[40] = second compound 0.3 µM, first compound 1 µM
[41] = second compound 0.3 µM, first compound 3.16 µM
[42] = second compound 0.3 µM, first compound 10 µM
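Note: spheroids exposed to the agents for seven days before the readout.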

Structure (SMILES): O=C(c1ccc(F)c(F)c1Nc1ccc(I)cc1F)N1CC(O)([C@@H]2CCCCN2)C1
viability, T/C (compound 0.01 µM): 77.5% [middle of 4 runs]
viability, T/C (compound 0.1 µM): 51.2% [middle of 4 runs]
viability, T/C (compound 0.316 µM): 28.2% [middle of 4 runs]
viability, T/C (compound 1 µM): 11.1% [middle of 4 runs]
IC50 (curve of compound): 112 nM [middle of 4 runs]

Structure (SMILES): CC(C)n1nc(-c2ccc3oc(N)nc3c2)c2c(N)ncnc21 + CCn1c(-c2cccnc2C(C)OC)c2c3cc(ccc31)N1CCOC(CC(NC(=O)C(C(C)C)N(C)C(=O)C3(F)CCN(C(=O)C#CC(C)(C)N(C)C)CC3)C(=O)N3CCCC(N3)C(=O)OCC(C)(C)C2)C1
IC50 [1]: 21.8 nM
IC50 [2]: 20.1 nM
IC50 [3]: 20.1 nM
IC50 [4]: 22.1 nM
IC50 [5]: 24.6 nM
IC50 [6]: 17.7 nM
viability, T/C (second compound 0.000949 µM, first compound 0.000316 µM): 85.9%
viability, T/C (second compound 0.000949 µM, first compound 0.001 µM): 95.4%
viability, T/C (second compound 0.000949 µM, first compound 0.00316 µM): 82.9%
viability, T/C (second compound 0.000949 µM, first compound 0.01 µM): 66%
viability, T/C [7]: 42.9%
viability, T/C [8]: 28.4%
viability, T/C (second compound 0.003 µM, first compound 0.000316 µM): 95.8%
viability, T/C (second compound 0.003 µM, first compound 0.001 µM): 104%
viability, T/C (second compound 0.003 µM, first compound 0.00316 µM): 87.3%
viability, T/C (second compound 0.003 µM, first compound 0.01 µM): 62.7%
viability, T/C [13]: 42.9%
viability, T/C [14]: 34%
viability, T/C (second compound 0.00949 µM, first compound 0.000316 µM): 107%
viability, T/C (second compound 0.00949 µM, first compound 0.001 µM): 98.8%
viability, T/C (second compound 0.00949 µM, first compound 0.00316 µM): 94.5%
viability, T/C (second compound 0.00949 µM, first compound 0.01 µM): 63.9%
viability, T/C [19]: 41.1%
viability, T/C [20]: 32.9%
viability, T/C (second compound 0.03 µM, first compound 0.000316 µM): 100%
viability, T/C (second compound 0.03 µM, first compound 0.001 µM): 93.8%
viability, T/C (second compound 0.03 µM, first compound 0.00316 µM): 76.9%
viability, T/C (second compound 0.03 µM, first compound 0.01 µM): 59.3%
viability, T/C [25]: 47.4%
viability, T/C [26]: 29.1%
viability, T/C (second compound 0.0949 µM, first compound 0.000316 µM): 97.7%
viability, T/C (second compound 0.0949 µM, first compound 0.001 µM): 95.8%
viability, T/C (second compound 0.0949 µM, first compound 0.00316 µM): 79.4%
viability, T/C (second compound 0.0949 µM, first compound 0.01 µM): 68.1%
viability, T/C [31]: 44%
viability, T/C [32]: 31.8%
viability, T/C (second compound 0.3 µM, first compound 0.000316 µM): 92.4%
viability, T/C (second compound 0.3 µM, first compound 0.001 µM): 93.8%
viability, T/C (second compound 0.3 µM, first compound 0.00316 µM): 81.7%
viability, T/C (second compound 0.3 µM, first compound 0.01 µM): 54.6%
viability, T/C [37]: 45.4%
viability, T/C [38]: 44.9%

Structure (SMILES): CCC(CC)c1cc(NC2CCC(N)C2)n2nccc2n1 (stereo not drawn)
viability, T/C (compound 0.1 µM): 107% [middle of 4 runs]
viability, T/C (compound 0.316 µM): 120% [middle of 4 runs]
viability, T/C (compound 3.16 µM): 14% [middle of 4 runs]
viability, T/C (compound 10 µM): 19.9% [middle of 4 runs]
IC50 (curve of compound): 2.01 µM [middle of 4 runs]

Continued, in another order:

IC50 [1]: 772 nM
IC50 [2]: 502 nM
IC50 [3]: 544 nM
IC50 [4]: 473 nM
IC50 [5]: 510 nM
IC50 [6]: 442 nM
Structure (SMILES): CC(Nc1ccc2c(c1)OCCn1cc(N3C(=O)OCC3C(F)F)nc1-2)C(N)=O (stereo not drawn) + CCn1c(-c2cccnc2C(C)OC)c2c3cc(ccc31)N1CCOC(CC(NC(=O)C(C(C)C)N(C)C(=O)C3(F)CCN(C(=O)C#CC(C)(C)N(C)C)CC3)C(=O)N3CCCC(N3)C(=O)OCC(C)(C)C2)C1
viability, T/C [7]: 85.2%
viability, T/C [8]: 79.2%
viability, T/C [9]: 66.4%
viability, T/C [10]: 44.6%
viability, T/C [11]: 29.4%
viability, T/C [12]: 20.1%
viability, T/C [13]: 88.3%
viability, T/C [14]: 70.8%
viability, T/C [15]: 59.3%
viability, T/C [16]: 38%
viability, T/C [17]: 30.1%
viability, T/C [18]: 20.3%
viability, T/C [19]: 99.2%
viability, T/C [20]: 71%
viability, T/C [21]: 60.3%
viability, T/C [22]: 43.7%
viability, T/C [23]: 26.8%
viability, T/C [24]: 21.9%
viability, T/C [25]: 83.3%
viability, T/C [26]: 69.6%
viability, T/C [27]: 56.8%
viability, T/C [28]: 37%
viability, T/C [29]: 33.2%
viability, T/C [30]: 20.5%
viability, T/C [31]: 85.8%
viability, T/C [32]: 73.7%
viability, T/C [33]: 57.2%
viability, T/C [34]: 40.1%
viability, T/C [35]: 29.3%
viability, T/C [36]: 23.9%
viability, T/C [37]: 92%
viability, T/C [38]: 67.5%
viability, T/C [39]: 53.5%
viability, T/C [40]: 41.2%
viability, T/C [41]: 29.4%
viability, T/C [42]: 18.3%

IC50 [1]: > 10000 nM
IC50 [2]: 6610 nM
IC50 [3]: 6600 nM
IC50 [4]: > 10000 nM
IC50 [5]: 6910 nM
IC50 [6]: 6620 nM
Structure (SMILES): CC1(O)CCCC1n1c(=O)c(C(F)F)cc2cnc(NC3CCN(S(C)(=O)=O)CC3)nc21 (stereo not drawn) + CCn1c(-c2cccnc2C(C)OC)c2c3cc(ccc31)N1CCOC(CC(NC(=O)C(C(C)C)N(C)C(=O)C3(F)CCN(C(=O)C#CC(C)(C)N(C)C)CC3)C(=O)N3CCCC(N3)C(=O)OCC(C)(C)C2)C1
viability, T/C [7]: 88.3%
viability, T/C [8]: 71.1%
viability, T/C [9]: 67.8%
viability, T/C [10]: 59.2%
viability, T/C [11]: 81.2%
viability, T/C [12]: 47.2%
viability, T/C [13]: 86.8%
viability, T/C [14]: 71.4%
viability, T/C [15]: 73.4%
viability, T/C [16]: 62.5%
viability, T/C [17]: 71.7%
viability, T/C [18]: 39.6%
viability, T/C [19]: 97.2%
viability, T/C [20]: 69.3%
viability, T/C [21]: 78.6%
viability, T/C [22]: 79.8%
viability, T/C [23]: 79.5%
viability, T/C [24]: 33.4%
viability, T/C [25]: 92.6%
viability, T/C [26]: 62.1%
viability, T/C [27]: 60.9%
viability, T/C [28]: 63.8%
viability, T/C [29]: 83.3%
viability, T/C [30]: 42.5%
viability, T/C [31]: 86.8%
viability, T/C [32]: 73.4%
viability, T/C [33]: 64.4%
viability, T/C [34]: 65.4%
viability, T/C [35]: 85.9%
viability, T/C [36]: 38.1%
viability, T/C [37]: 84.3%
viability, T/C [38]: 62.3%
viability, T/C [39]: 72%
viability, T/C [40]: 68.9%
viability, T/C [41]: 88.9%
viability, T/C [42]: 36.1%

IC50 [1]: > 10000 nM
IC50 [2]: > 10000 nM
IC50 [3]: > 10000 nM
IC50 [4]: > 10000 nM
IC50 [5]: > 10000 nM
IC50 [6]: > 10000 nM
Structure (SMILES): C[C@@H](NC(=O)c1ncnc(N)c1Cl)c1ncc(C(=O)Nc2cc(C(F)(F)F)c(Cl)cn2)s1 + CCn1c(-c2cccnc2C(C)OC)c2c3cc(ccc31)N1CCOC(CC(NC(=O)C(C(C)C)N(C)C(=O)C3(F)CCN(C(=O)C#CC(C)(C)N(C)C)CC3)C(=O)N3CCCC(N3)C(=O)OCC(C)(C)C2)C1
viability, T/C [7]: 95.5%
viability, T/C [8]: 123%
viability, T/C [9]: 95.5%
viability, T/C [10]: 101%
viability, T/C [11]: 106%
viability, T/C [12]: 83.6%
viability, T/C [13]: 105%
viability, T/C [14]: 104%
viability, T/C [15]: 126%
viability, T/C [16]: 104%
viability, T/C [17]: 100%
viability, T/C [18]: 73.7%
viability, T/C [19]: 113%
viability, T/C [20]: 115%
viability, T/C [21]: 119%
viability, T/C [22]: 112%
viability, T/C [23]: 108%
viability, T/C [24]: 94.8%
viability, T/C [25]: 111%
viability, T/C [26]: 109%
viability, T/C [27]: 107%
viability, T/C [28]: 107%
viability, T/C [29]: 100%
viability, T/C [30]: 95.3%
viability, T/C [31]: 113%
viability, T/C [32]: 97.3%
viability, T/C [33]: 121%
viability, T/C [34]: 107%
viability, T/C [35]: 121%
viability, T/C [36]: 91.5%
viability, T/C [37]: 104%
viability, T/C [38]: 98.9%
viability, T/C [39]: 93.4%
viability, T/C [40]: 121%
viability, T/C [41]: 101%
viability, T/C [42]: 85.9%
